Results published in US8877208B2 (priority 2008, dated 2014).
“Also recorded” adds a separate entry of the source.

Test system: virus

TRITON-X100
biocidal activity against virus (ability to inactivate a virus): less biocidal activity; also recorded: less ability to inactivate a virus
